{
  "source": "paper PMC12388617",
  "about": "“Development and Biochemical Characterization of Quorum Quenching Enzyme from Deep-Sea Bacillus velezensis DH82” (Microorganisms, 2025)",
  "key": {"YtnPDH82": {"target": "T1, YtnPDH82 (Bacillus velezensis, UniProt A7Z7T2)", "T1 construct": "gene RBAM_027000; full length, pET28a EcoRI/XhoI, His6 at N- and C-terminus, E. coli BL21, Ni-NTA; primer-encoded start METLNIGNF", "T1 sequence (A7Z7T2 entry or part of it)": "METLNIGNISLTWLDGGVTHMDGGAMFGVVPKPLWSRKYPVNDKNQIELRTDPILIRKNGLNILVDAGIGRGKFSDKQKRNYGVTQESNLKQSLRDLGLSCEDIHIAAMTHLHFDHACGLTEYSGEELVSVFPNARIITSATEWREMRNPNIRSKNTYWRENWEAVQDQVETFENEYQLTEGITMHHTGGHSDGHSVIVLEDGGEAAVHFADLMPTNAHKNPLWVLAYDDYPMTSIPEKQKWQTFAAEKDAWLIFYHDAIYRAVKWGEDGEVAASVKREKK", "assay": "UPLC-QTOF MS of residual AHL (m/z […]), Lineweaver-Burk", "type": "biochemical", "conditions": "pH 6.5, 28 °C, 45 min; substrate 200-350 µM (far below the printed Km)"}, "AiiADH82": {"system": "T2, AiiADH82", "T2 construct": "gene aiiA; full length, pET28a NdeI/XhoI, His6 at N- and C-terminus, E. coli BL21, Ni-NTA; primer-encoded start MTVKKLYF", "assay": "UPLC-QTOF MS of residual AHL (m/z […]), Lineweaver-Burk", "type": "biochemical, Bacillus velezensis", "conditions": "pH 6.5, 28 °C, 45 min; substrate 200-350 µM (far below the printed Km)"}},
  "data": [
    {"smiles": "CCCC(=O)CC(=O)N[C@H]1CCOC1=O", "note": "[3-oxo-C6-HSL]", "values": [
      {"measurement": "Km", "setting": "YtnPDH82", "result": 15.3, "unit": "mM"},
      {"measurement": "Km", "setting": "AiiADH82", "result": 7.8, "unit": "mM"}
    ]}
  ]
}
